{
  "source": "patent US9447132B2",
  "about": "(priority 2013, dated 2016)",
  "key": {"[1]": {"experiment": "Buffer stability (stability of the compounds in the absence of cells)", "type": "physicochemical", "conditions": "24 hr"}, "HCV replicon": {"tested_on": "HCV replicon", "experiment": "Predicted EC50 against HCV replicon in primary human hepatocytes", "type": "cell-based", "conditions": "Hepatitis C virus, Hepatocyte"}, "human liver hepatocytes": {"tested_on": "human liver hepatocytes", "experiment": "Triphosphate levels (Formula IV, GS-7977-TP) in human hepatocytes", "type": "in vitro ADME", "conditions": "for time at which peak levels were obtained: 5 μM parent, 48 hours of incubation", "method": "[…] Cells were washed twice with cold PBS.\nSupernatants were removed and analyzed by LC-MS/MS. […] Samples were centrifuged at 3000 rpm for 15 minutes. Supernatants were removed and analyzed by LC-MS/MS."}, "[2]": {"tested_on": "Cynomolgus monkey liver hepatocyte", "experiment": "Half-life of active triphosphate in monkey hepatocytes", "type": "in vitro ADME", "conditions": "parenthesis = 95% confidence interval", "method": "(§1) Human hepatocyte cells used for half-life determinations were human liver hepatocyte 12-well format cells and were seeded at 0.67 million cells per well. Canine hepatocyte cells used for half-life determinations were beagle dog liver hepatocyte 12-well format cells and were seeded at 0.67 million cells per well. Monkey hepatocyte cells used for half-life determinations were Cynomolgus monkey liver hepatocyte 12-well format cells, and were seeded at 0.9 million cells per well. Rat hepatocyte cells for half-life determinations were Sprague-Dawley (SD) rat liver hepatocyte 12-well format cells, and were seeded at 0.67 million cells per well. All cells were obtained from Life Technologies."}, "[3]": {"tested_on": "Sprague-Dawley (SD) rat liver hepatocyte", "experiment": "Half-life of active triphosphate in rat hepatocytes", "type": "in vitro ADME", "conditions": "parenthesis = 95% confidence interval", "method": "as §1"}, "[4]": {"tested_on": "beagle dog liver hepatocyte", "experiment": "Half-life of active triphosphate in dog hepatocytes", "type": "in vitro ADME", "conditions": "parenthesis = 95% confidence interval", "method": "as §1"}, "[5]": {"tested_on": "hepatocytes (human, dog, monkey and rat)", "experiment": "Half-lives of active triphosphate in hepatocytes from four species", "type": "in vitro ADME", "conditions": "across hepatocytes from four species (human, dog, monkey, rat)", "method": "as §1"}, "human liver hepatocyte": {"tested_on": "human liver hepatocyte", "experiment": "Half-life of active triphosphate in human hepatocytes", "type": "in vitro ADME", "conditions": "for t1/2 (hr): Human hepatocytes, parenthesis = 95% confidence interval", "method": "as §1"}, "primary hepatocytes": {"tested_on": "primary hepatocytes", "experiment": "Formula IV concentration from Formula II dosing in primary hepatocytes", "type": "in vitro ADME, human", "source_text": "The general methods of Example 13 were used to determine compound concentrations."}, "HCV genotype 1, 2 or 3": {"tested_on": "HCV genotype 1, 2 or 3", "conditions": "once-daily 300 mg for seven days, treatment naïve patients; cited from earlier work"}, "HCV": {"tested_on": "HCV", "conditions": "several large clinical trials; cited from earlier work"}, "HCV genotype 1": {"tested_on": "HCV genotype 1", "conditions": "cited from earlier work"}, "[6]": {"conditions": "2 hr incubation with 5 μM Formula II"}, "[7]": {"conditions": "4 hr incubation with 5 μM Formula II"}, "[8]": {"conditions": "8 hr incubation with 5 μM Formula II"}, "[9]": {"conditions": "25 hr incubation with 5 μM Formula II"}, "[10]": {"conditions": "48 hr incubation with 5 μM Formula II"}},
  "note": "Marks after values point to notes of the source that are not given here.",
  "data": [
    {"molecule": "[2H]c1cn([C@@H]2O[C@H](C([2H])([2H])OP(=O)(N[C@@H](C)C(=O)OC(C)C)Oc3ccccc3)[C@@H](O)[C@@]2(C)O)c(=O)[nH]c1=O", "note": "(stereo partly drawn) [Formula II]", "values": [
      {"measurement": "Buffer Stability Parent T24 hr 37° C.", "setting": "[1]; Table 1", "value": 97},
      {"measurement": "Buffer Stability Parent T24 hr 37° C.", "setting": "[1]; Table 2", "value": 97},
      {"measurement": "EC50", "setting": "HCV replicon", "value": "6.25 to 10", "unit": "nM"}
    ]},
    {"molecule": "C[C@]1(O)C(n2ccc(=O)[nH]c2=O)OC(COP(=O)(O)OP(=O)(O)OP(=O)(O)O)[C@H]1O", "note": "(stereo partly drawn) [Formula IV]", "values": [
      {"measurement": "time at which peak levels were obtained", "setting": "human liver hepatocytes; human hepatocytes", "value": "> 48", "unit": "h"},
      {"measurement": "Formula IV (pmol/million cells) rep 1", "setting": "human liver hepatocytes; [6]", "value": 72.1, "unit": "pmol/million cells"},
      {"measurement": "Formula IV (pmol/million cells) rep 2", "setting": "human liver hepatocytes; [6]", "value": 71.5, "unit": "pmol/million cells"},
      {"measurement": "Formula IV (pmol/million cells) rep 3", "setting": "human liver hepatocytes; [6]", "value": 67.9, "unit": "pmol/million cells"},
      {"measurement": "Formula IV (pmol/million cells) rep 1", "setting": "human liver hepatocytes; [7]", "value": 130, "unit": "pmol/million cells"},
      {"measurement": "Formula IV (pmol/million cells) rep 2", "setting": "human liver hepatocytes; [7]", "value": 129, "unit": "pmol/million cells"},
      {"measurement": "Formula IV (pmol/million cells) rep 3", "setting": "human liver hepatocytes; [7]", "value": 129, "unit": "pmol/million cells"},
      {"measurement": "Formula IV (pmol/million cells) rep 1", "setting": "human liver hepatocytes; [8]", "value": 218, "unit": "pmol/million cells"},
      {"measurement": "Formula IV (pmol/million cells) rep 2", "setting": "human liver hepatocytes; [8]", "value": 217, "unit": "pmol/million cells"},
      {"measurement": "Formula IV (pmol/million cells) rep 3", "setting": "human liver hepatocytes; [8]", "value": 236, "unit": "pmol/million cells"},
      {"measurement": "Formula IV (pmol/million cells) Mean+StDev", "setting": "human liver hepatocytes; [9]", "value": 486, "unit": "pmol/million cells"},
      {"measurement": "Formula IV (pmol/million cells) rep 1", "setting": "human liver hepatocytes; [9]", "value": 506, "unit": "pmol/million cells"},
      {"measurement": "Formula IV (pmol/million cells) rep 2", "setting": "human liver hepatocytes; [9]", "value": 465, "unit": "pmol/million cells"},
      {"measurement": "Formula IV (pmol/million cells) rep 3", "setting": "human liver hepatocytes; [9]", "value": 488, "unit": "pmol/million cells"},
      {"measurement": "Formula IV (pmol/million cells) rep 1", "setting": "human liver hepatocytes; [10]", "value": 619, "unit": "pmol/million cells"},
      {"measurement": "Formula IV (pmol/million cells) rep 2", "setting": "human liver hepatocytes; [10]", "value": 581, "unit": "pmol/million cells"},
      {"measurement": "Formula IV (pmol/million cells) rep 3", "setting": "human liver hepatocytes; [10]", "value": 575, "unit": "pmol/million cells"},
      {"measurement": "t1/2 (hr)", "setting": "[2]", "value": "14.5 (11.8-18.9) hr"},
      {"measurement": "t1/2 (hr)", "setting": "[3]", "value": "10.2 (8.6-12.5) hr"},
      {"measurement": "t1/2 (hr)", "setting": "[4]", "value": "29.6 (22.0-45.4) hr"},
      {"measurement": "half-lives range", "setting": "[5]", "value": "10 to 30", "unit": "h"},
      {"measurement": "t1/2 (hr)", "setting": "human liver hepatocyte", "value": "27.6 (26.0-29.4)^a hr"},
      {"measurement": "half-life", "setting": "human liver hepatocyte; human hepatocytes", "value": "> 24", "unit": "h"},
      {"measurement": "Formula IV concentration higher than in Huh-luc/neo cells", "setting": "primary hepatocytes; 50 nM Formula II, primary hepatocytes vs Huh-luc/neo cells", "value": "5- to 8 fold"},
      {"measurement": "level of Formula IV", "setting": "primary hepatocytes; Formula II at 50 nM, primary hepatocytes, 24 hours", "value": "9.2-16.2 pmol/million cells"}
    ]},
    {"molecule": "C[C@@]1(F)[C@H](O)[C@@H](COP(=O)(O)OP(=O)(O)OP(=O)(O)O)O[C@H]1n1ccc(=O)[nH]c1=O", "note": "[GS-7977-TP, reference compound]", "values": [
      {"measurement": "time at which peak levels were obtained", "setting": "human liver hepatocytes; human hepatocytes", "value": 24, "unit": "h"},
      {"measurement": "intracellular conversion to triphosphate, greater than that of Formula IV from Formula II", "setting": "human liver hepatocytes; over a 48 hour period, 5 μM, human hepatocytes", "value": 2, "unit": "fold"},
      {"measurement": "t1/2 (hr)", "setting": "[2]", "value": "9.3 (7.9-11.4) hr"},
      {"measurement": "t1/2 (hr)", "setting": "[3]", "value": "7.6 (6.4-9.3) hr"},
      {"measurement": "t1/2 (hr)", "setting": "[4]", "value": "17.7 (15.0-21.5) hr"},
      {"measurement": "half-lives range", "setting": "[5]", "value": "8 to 23", "unit": "h"},
      {"measurement": "t1/2 (hr)", "setting": "human liver hepatocyte", "value": "22.6 (21.5-23.9) hr"}
    ]},
    {"molecule": "CC(C)OC(=O)[C@@H](C)N[P@@](=O)(OC[C@H]1O[C@@H](n2ccc(=O)[nH]c2=O)[C@](C)(Cl)[C@@H]1O)Oc1ccccc1", "note": "[IDX21437]", "values": [
      {"measurement": "mean maximum reduction in viral load", "setting": "HCV genotype 1, 2 or 3", "value": "4.2-4.3 log 10 IU/mL"}
    ]},
    {"molecule": "CC(C)OC(=O)[C@H](C)N[P@](=O)(OC[C@H]1O[C@@H](n2ccc(=O)[nH]c2=O)[C@@](C)(F)C1O)Oc1ccccc1", "note": "(stereo partly drawn) [Sovaldi, Sofosbuvir]", "values": [
      {"measurement": "sustained viral response (SVR) of twelve weeks, trial participants", "setting": "HCV", "value": "50-90%"}
    ]},
    {"molecule": "CC(C)OC(=O)[C@H](C)NP(=S)(OC[C@H]1O[C@@H](n2ccc(=O)[nH]c2=O)[C@](C)(O)[C@@H]1O)Oc1ccccc1", "note": "(stereo partly drawn) [VX-135]", "values": [
      {"measurement": "completion of treatment rate (SVR4)", "setting": "HCV genotype 1; eleven patients who completed 12 weeks of treatment, with daclatasvir", "value": 91, "unit": "%"},
      {"measurement": "sustained viral response rate four weeks after completion of treatment (SVR4)", "setting": "HCV genotype 1; intent-to-treat, treatment-naïve genotype 1, 200 mg VX-135 in combination with daclatasvir", "value": 83, "unit": "%"}
    ]}
  ]
}
